Data as given in US20240327415A1, “Multicomponent Complexes, Including Salts, Crystalline Forms, and Hydrates and Solvates of ENT1 Inhibitors” (iTeos Belgium SA, priority 2023, published 2024).

Assays:
Assay type in all cases: physicochemical
[1] = salt screen, XRPD of damp, dried and 40° C./75% RH stored samples (Salt Preparation Methods 1 and 2); parameters: key: A = amorphous; Evap. = isolated via evaporation; conditions: 1 equiv.
Experimental: (§1) Salt Preparation Method 1: Approximately 25 mg of Compound 1 (free base) was weighed out into 1.5 mL screw-cap vials and a stirrer bar was added. For solid counterions, the appropriate amount of acid (1.0 or 2.0 equiv.) was weighed into separate 1.5 mL screw-cap vials. 100 μL of the appropriate solvent system was added to both the Compound 1 and the solid counterions. Stock solutions of liquid counterions were prepared, such that 100 μL contained 1.0 or 2.0 equiv. of acid. See counterion and solvent lists in Table 60 and Table 61 respectively.
(§2) The samples were stirred at 40° C. for 5-10 min and then the acid solutions were added to Compound 1, rinsing out the transfer vial with a further 50 μL of solvent. […] Experiments were temperature cycled between 40° C. and 5° C. (1 h hold; 0.1° C./min ramp/cool) for ca. 24-68 h. Anti-solvent addition (ASA) was carried out to slurries at 5° C. then experiments were heated to 30° C. over 1 h. ASA was carried out at 30° C. or 40° C. where clear solutions or gums were observed.
(§3) Temperature cycling was then continued for ca. 16-69 h, followed by further ASA and temperature cycling if required. Material was isolated at 5° C. and analyzed damp by XRPD. All isolated material was dried under vacuum at ca. 40° C. for ca. 17-91 h then re-analyzed by XRPD. The XRPD plate was stored at 40° C./75% RH for 24-48 h and then samples re-analyzed. Solutions were stored uncapped at ambient temperature to evaporate. Any residual solids were analyzed by XRPD.
(§4) Salt Preparation Method 2: The general procedure adopted in preparing the potential salts is outlined below. A known mass of Compound 1 (free base) and a known volume of the appropriate solvent system were added to 20 mL scintillation vials. The required mol. equiv. of the appropriate counterions were added to the vials as solutions or slurries in the corresponding solvent system.
(§5) The experiments were stirred at 40° C. for ca. 1 h, and then temperature cycled between 40° C. and 5° C. with 0.1° C./min ramp and 1 h hold between each step. Anti-solvent additions and subsequent slurrying at 5° C. were employed in order to facilitate crystallization. […] The damp and dried solids were subsampled and analyzed by XRPD. Where applicable, the dried solids were stored at 40° C./75% RH for 24-48 h in order to improve the crystallinity and/or facilitate solid form conversion to the desired form.

[2] = as above; parameters: key to XRPD Analysis Damp/Dry: A = amorphous; Evap. = isolated via evaporation; conditions: 1 equiv.; for XRPD Analysis Damp / XRPD Analysis Dry: Ethyl acetate, AS Heptane
Experimental: as §1, §2, §3, §4, §5

[3] = Dynamic Vapor Sorption (DVS)
Experimental: (§6) METHOD A: In Example 11, approximately 5-15 mg of sample was placed into a mesh vapor sorption balance pan and loaded into either a DVS Intrinsic or DVS Advantage dynamic vapor sorption balance by Surface Measurement Systems. The sample was subjected to a ramping profile from 40-90% relative humidity (RH) at 10% increments, maintaining the sample at each step until a stable weight had been achieved (dm/dt 0.004%, minimum step length 30 minutes, maximum step length 500 minutes) at 25° C. After completion of the sorption cycle, the sample was dried using the same procedure to 0% RH and then a second sorption cycle back to 40% RH was carried out. Two cycles were performed. The weight change during the sorption/desorption cycles were plotted, allowing the hygroscopic nature of the sample to be determined. XRPD analysis was then carried out on the residual solid.
as §6, with “B:” for “A:”, “Examples 2A, 3, 14, and 17,” for “Example 11,”, “10-20” for “5-15”, “determined.” for “determined. XRPD analysis was then carried out on the residual solid.”
as §6, with “Approximately 10-20” for “METHOD A: In Example 11, approximately 5-15”, “RH” for “relative humidity (RH)”, “min,” for “minutes,”, “min)” for “minutes)”, “determined.” for “determined. XRPD analysis was then carried out on the residual solid.”

[4] = seven-day solid stability studies (ambient; 40° C./75% RH; 80° C.), XRPD and HPLC; parameters: key to XRPD Analysis: Amorphous Compound 1 (free base); Crystalline Form 1 Compound 1 (free base); conditions: for Post-Storage Observations / Solid Purity / XRPD Analysis / solid form by XRPD after storage: 7 days; for degradation by HPLC: after 7 days storage at 40° C./75% RH and ambient conditions; for decrease in purity by HPLC: after 7 days storage at 80° C.
Experimental: In the experiment, one set of vials was exposed to ambient light, temperature and humidity conditions. Another was exposed openly to 40° C. and 75% RH conditions and a third was sealed and exposed to 80° C. conditions. After 7 days, XRPD and HPLC measurements were collected.
Example 12-Stability Studies of Amorphous Compound 1 (free base) and Crystalline Form 1 Compound 1 (free base): Seven-day stability studies were carried out comparing amorphous Compound 1 (free base) and crystalline Form 1 Compound 1 (free base) at 40° C./75% RH, under ambient conditions and at 80° C. After storage at 40° C./75% RH and 80° C., the amorphous material formed glassy solids which were pale yellow (40° C./75% RH) or orange (80° C.). It is likely that the material melted and re-solidified at 80° C. and deliquesced at 40° C./75% RH. […] (decrease in purity of ca. 11% area).
Example 15-Stabilities Studies-Crystalline Form 3 Compound 1 di(hydrogen sulfate) and Crystalline Form 4 Compound 1 mono(hydrogen sulfate): Seven-day stability studies were carried out on the prepared crystalline Form 3 Compound 1 di(hydrogen sulfate) and crystalline Form 4 Compound 1 mono(hydrogen sulfate) using the following conditions: (1) Ambient light, temperature and humidity conditions (open vial); (2) 40° C./75% RH (open vial); and (3) 80° C. (closed vial). After 7 days of storage under the specified conditions, XRPD and HPLC analyses were carried out on the residual solid materials, and the results are summarized in Table 51.
Example 18-Seven Day Stability Study on Crystalline Form 2 Compound 1 di(hydrogen sulfate) trihydrate: A 7-day stability study was conducted on crystalline Form 2 Compound 1 di(hydrogen sulfate) trihydrate using the following conditions: (1) ambient light, temperature, and humidity conditions (open vial); (2) 40° C., 75% RH (open vial); and (3) 80° C. (closed vial). After 7 days of storage under the specified, XRPD and HPLC analyses were carried out on the residual solid materials.

[5] = Benzenesulfonic acid, Acetonitrile, AS tBME
[6] = Benzenesulfonic acid, Ethanol, AS Heptane
[7] = Benzenesulfonic acid, Ethyl acetate, AS Heptane
[8] = Benzenesulfonic acid, MEK, AS Heptane
[9] = Benzenesulfonic acid, THF, AS Heptane
[10] = Citric acid, Acetonitrile, AS tBME
[11] = Citric acid, Ethanol, AS Heptane
[12] = Citric acid, IPA:H2O (75:25% v/v), AS tBME
[13] = L-Tartaric acid, Acetonitrile, AS tBME
[14] = L-Tartaric acid, Ethanol, AS Heptane
[15] = L-Tartaric acid, IPA:H2O (75:25% v/v), AS tBME
[16] = L-Tartaric acid, MEK, AS Heptane
[17] = L-Tartaric acid, THF, AS Heptane

With O=S(=O)(O)c1ccccc1 [Benzenesulfonic acid, 1 equiv.] the “XRPD Analysis 40° C. 75% RH” value [1, 5] was “A”, the “XRPD Analysis Damp” value [1, 5] was “A” and the “XRPD Analysis Dry” value [1, 5] was “A”. The “XRPD Analysis 40° C. 75% RH” value [1, 6] was “A”, the “XRPD Analysis Damp” value [1, 6] was “A” and the “XRPD Analysis Dry” value [1, 6] was “A”. The “XRPD Analysis 40° C. 75% RH” value [1, 7] was “A”, the “XRPD Analysis Damp” value [1, 7] was “A” and the “XRPD Analysis Dry” value [1, 7] was “A”. The “XRPD Analysis 40° C. 75% RH” value ([1]; Benzenesulfonic acid, IPA:H2O (75:25% v/v), AS tBME) was “A”, the “XRPD Analysis 40° C. 75% RH” value [1, 8] was “A” and the “XRPD Analysis Damp” value [1, 8] was “A”. For the same molecule, the “XRPD Analysis Dry” value [1, 8] was “A”, the “XRPD Analysis 40° C. 75% RH” value [1, 9] was “A” and the “XRPD Analysis Damp” value [1, 9] was “A”. For the same molecule, the “XRPD Analysis Dry” value [1, 9] was “A” and the “XRPD Analysis Damp/Dry” value ([2]; Benzenesulfonic acid, IPA:H2O (75:25% v/v), AS tBME, (evap.)) was “A (evap.)”.
In the case of O=C(O)CC(O)(CC(=O)O)C(=O)O [Citric acid, 1 equiv.], the “XRPD Analysis 40° C. 75% RH” value [1, 10] is reported as “A”, the “XRPD Analysis Damp” value [1, 10] is reported as “A” and the “XRPD Analysis Dry” value [1, 10] is reported as “A”. For the same molecule, the “XRPD Analysis 40° C. 75% RH” value [1, 11] was “A”, the “XRPD Analysis Damp” value [1, 11] was “A” and the “XRPD Analysis Dry” value [1, 11] was “A”. The “XRPD Analysis 40° C. 75% RH” value ([1]; Citric acid, Ethyl acetate, AS Heptane) was “A”, the “XRPD Analysis 40° C. 75% RH” value [1, 12] was “A” and the “XRPD Analysis Damp” value [1, 12] was “A”. For the same molecule, the “XRPD Analysis Dry” value [1, 12] was “A”, the “XRPD Analysis 40° C. 75% RH” value ([1]; Citric acid, MEK, AS Heptane) was “A” and the “XRPD Analysis Damp” value ([1]; Citric acid, MEK, AS Heptane) was “A”. The “XRPD Analysis Dry” value ([1]; Citric acid, MEK, AS Heptane) was “A”, the “XRPD Analysis 40° C. 75% RH” value ([1]; Citric acid, THF, AS Heptane) was “A” and the “XRPD Analysis Damp” value ([1]; Citric acid, THF, AS Heptane) was “A”. The “XRPD Analysis Dry” value ([1]; Citric acid, THF, AS Heptane) was “A”, the “XRPD Analysis Damp” value ([2]; Citric acid) was “PC, CI” and the “XRPD Analysis Dry” value ([2]; Citric acid) was “PC, CI”.
In the case of O=C(O)C(O)C(O)C(=O)O [L-Tartaric acid, 1 equiv.], the “XRPD Analysis 40° C. 75% RH” value [1, 13] is reported as “A”, the “XRPD Analysis Damp” value [1, 13] is reported as “A” and the “XRPD Analysis Dry” value [1, 13] is reported as “A”. For the same molecule, the “XRPD Analysis 40° C. 75% RH” value [1, 14] was “A”, the “XRPD Analysis Damp” value [1, 14] was “A” and the “XRPD Analysis Dry” value [1, 14] was “A”. For the same molecule, the “XRPD Analysis 40° C. 75% RH” value ([1]; L-Tartaric acid, Ethyl acetate, AS Heptane) was “A”, the “XRPD Analysis 40° C. 75% RH” value [1, 15] was “A” and the “XRPD Analysis Damp” value [1, 15] was “A”. For the same molecule, the “XRPD Analysis Dry” value [1, 15] was “A”, the “XRPD Analysis 40° C. 75% RH” value [1, 16] was “A” and the “XRPD Analysis Damp” value [1, 16] was “A”. The “XRPD Analysis Dry” value [1, 16] was “A”, the “XRPD Analysis 40° C. 75% RH” value [1, 17] was “A” and the “XRPD Analysis Damp” value [1, 17] was “A”. For the same molecule, the “XRPD Analysis Dry” value [1, 17] was “A”, the “XRPD Analysis Damp” value ([2]; L-Tartaric acid) was “PC, CI” and the “XRPD Analysis Dry” value ([2]; L-Tartaric acid) was “PC, CI”.
With COc1cc(C(=O)O[C@@H]2CCCOc3cc(cc(OC)c3OC)C(=O)NCCCN3CCCN(CC2)CC3)cc(OC)c1OC [amorphous Compound 1 (free base)] the hygroscopicity ([3]; 25° C.) was “hygroscopic”, the “Post-Storage Observations” value ([4]; 40° C./75% RH) was “Pale yellow” and the “Solid Purity” value ([4]; 40° C./75% RH) was 98.8 % area. The “XRPD Analysis” value ([4]; 40° C./75% RH) was “A”, the “Post-Storage Observations” value ([4]; 80° C.) was “Orange glassy” and the “Solid Purity” value ([4]; 80° C.) was 87.5 % area. For the same molecule, the “XRPD Analysis” value ([4]; 80° C.) was “A”, the “Post-Storage Observations” value ([4]; Ambient) was “White solid” and the “Solid Purity” value ([4]; Ambient) was 98.9 % area. For the same molecule, the “XRPD Analysis” value ([4]; Ambient) was “A”, the “solid form by XRPD after storage” value ([4]; all storage conditions) was “remained amorphous” and the “degradation by HPLC” value [4] was “no significant degradation”. For the same molecule, the “decrease in purity by HPLC” value [4] was “ca. 11 % area” and the “Input Material Purity” value ([4]; before storage) was 98.8 % area.
With COc1cc(C(=O)O[C@@H]2CCCOc3cc(cc(OC)c3OC)C(=O)NCCCN3CCCN(CC2)CC3)cc(OC)c1OC [crystalline Form 1 Compound 1 (free base)] the hygroscopicity ([3]; 25° C.) was “slightly hygroscopic”, the “post-DVS sample (XRPD / appearance)” value ([3]; DVS at 25° C.) was “predominantly amorphous material was recovered” and the “moisture uptake (DVS)” value ([3]; at 80% RH, second sorption cycle, after likely formation of amorphous material) was 3.3%. The “moisture uptake (DVS)” value ([3]; between 40-80% RH, first sorption cycle, 25° C.) was 0.9%, the “moisture uptake (DVS)” value ([3]; between 80-90% RH, 25° C.) was 3.8% and the “solid form by XRPD after storage” value ([4]; 40° C./75% RH) was “amorphous material was recovered”. The “solid form by XRPD after storage” value ([4]; 80° C.) was “amorphous material was recovered”, the “solid form by XRPD after storage” value ([4]; ambient conditions) was “retained” and the “degradation by HPLC” value [4] was “no significant degradation”. The “decrease in purity by HPLC” value [4] was “ca. 15 % area”.
